From article PMC11855827, “High-Throughput Screening of Five Compound Libraries for Anthelmintic Activity and Toxicity Leads to the Discovery of Two Flavonoid Compounds” (International Journal of Molecular Sciences, 2025)
“And” between values parts separate entries of the source, which are not always exact repeats. Equal entries are not always repeated.

Test system: C. elegans
Conditions: 110 μM; for Percentage of motility inhibition 0 h / Percentage of motility inhibition 24 h: Table S2, C. elegans SS assay, averages of 4 data points

Compound | Percentage of motility inhibition 0 h | Percentage of motility inhibition 24 h (24 h) | Inhibition (%) 110 μM (24 h) (C. elegans L4 motility, 24 h, mean ± SD of four experiments)
C=C(CCC(C(=O)O)[C@H]1[C@H](O)C[C@@]2(C)C3=CC[C@H]4C(C)(C)[C@@H](OC(C)=O)CC[C@]4(C)C3=CC[C@]12C)C(C)C (stereo partly shown) [Dehydropachymic acid] | 29% | 35% | 
O=C(O)[C@H]1O[C@@H](Oc2cc(O)c3c(=O)cc(-c4ccc(O)cc4)oc3c2)[C@H](O)[C@@H](O)[C@@H]1O [Apigenin‐7‐glucuronide] | 23% | 3% | 
CC(=O)[N-]S(=O)(=O)c1ccc(N)cc1.[Na+] [Sulfacetamide (Sodium)] | 33% | 6% | 
O=C(CO)[C@@H](O)[C@H](O)[C@H](O)CO [D-Fructose] |  | 15% | 
Cc1nnc(SCC2=C(C(=O)[O-])N3C(=O)[C@@H](NC(=O)Cn4cnnn4)[C@H]3SC2)s1.[Na+] [Cefazolin (sodium)] | 14% | 0% | 
CN1CCCN=C1/C=C/c1cccs1.O=C(O)C(O)C(O)C(=O)O [Pyrantel tartrate, reference compound] | 85% | 61% | 26 ± 1%
CCC(C)(C)C(=O)OC1=C(c2ccc(Cl)cc2Cl)C(=O)OC12CCCCC2 [Spirodiclofen] | 5% | 0% | 
C=C(C)[C@H](CC=C(C)C)Cc1c(O)cc(OC)c2c1O[C@H](c1ccc(O)cc1O)[C@@H](O)C2=O [Kushenol I] | 0% | 8% | 
C[C@H](CC[C@@H](O[C@@H]1O[C@H](CO)[C@@H](O)[C@H](O)[C@H]1O[C@@H]1O[C@H](CO)[C@@H](O)[C@H](O)[C@H]1O)C(C)(C)O)[C@H]1CC[C@@]2(C)[C@@H]3CC=C4[C@@H](CC[C@H](O[C@@H]5O[C@H](CO)[C@@H](O)[C@H](O)[C@H]5O)C4(C)C)[C@]3(C)[C@H](O)C[C@]12C [Mogroside III-E] | 25% | 17% | 
O=C(/C=C/c1ccc(O)cc1)c1ccc(O[C@@H]2O[C@H](CO)[C@@H](O)[C@H](O)[C@H]2O)cc1O [Neoisoliquiritin] | 17% | 11% | 
COc1ccc(C2COc3cc(O)ccc3C2)c(O)c1OC (stereo not shown) [Isomucronulatol] | 7% | 7% | 
COc1c(O[C@@H]2O[C@H](C(=O)O)[C@@H](O)[C@H](O)[C@H]2O)cc2oc(-c3ccccc3)cc(=O)c2c1O [Oroxylin A‐7‐O‐glucuronide] | 0% | 1% | 
CN1CCN2c3ccccc3Cc3ccccc3C2C1.Cl (stereo not shown) [Mianserin (hydrochloride)] | 0% | 0% | 
Vitamin K | 0% | 15% | 
COc1cccc(-c2oc3ccccc3c(=O)c2O)c1 [3'‐Methoxyflavonol] | 9% | 0% | 
(‐)‐Epigalloca techin | 3% | 0% | 
CN1[C@@H]2CC(O)C[C@H]1[C@@H]1O[C@@H]12 (stereo partly shown) [Scopine] | 13% | 5% | 
O=c1cc(-c2ccc(O[C@@H]3O[C@H](CO)[C@@H](O)[C@H](O)[C@H]3O)cc2)oc2cc(O)c([C@@H]3O[C@H](CO)[C@@H](O)[C@H](O)[C@H]3O[C@@H]3OC[C@H](O)[C@H](O)[C@H]3O)c(O)c12 [Vaccarin] | 0% | 6% | 
Larixyl acetate | 0% | 44% | 
O=C(O)C1=CO[C@@H](O[C@@H]2O[C@H](CO)[C@@H](O)[C@H](O)[C@H]2O)[C@H]2[C@@H]1C=C[C@]2(O)CO [Monotropein] | 0% | 0% | 

Compound | Percentage of motility inhibition 0 h | Percentage of motility inhibition 24 h (24 h) | Inhibition (%) 110 μM (24 h) (C. elegans L4 motility, 24 h, mean ± SD of four experiments)
COc1cc(/C=C/C(=O)[O-])ccc1O.[Na+] [Ferulic acid (sodium)] | 10% | 0% | 
CCO[C@H]1O[C@@H]2O[C@@]3(C)CC[C@H]4[C@H](C)CC[C@@H]([C@H]1C)[C@@]24OO3 [Artemotil] |  | 0% and 2% | 
Nc1ncnc2c1ncn2[C@@H]1O[C@H](COP(=O)(O)O)[C@@H](O)[C@H]1O.O [Adenosine 5'-monophosphate (monohydrate)] | 20% | 2% | 
C[C@@]1(C(=O)O)CC[C@]2(C)CC[C@]3(C)C4=CC(=O)c5c(cc(O)c(O)c5C=O)[C@]4(C)CC[C@@]3(C)[C@@H]2C1 [Demethylzeylasteral] | 0% | 36% | 
CC(C)=C[C@@H]1CO[C@]23C[C@@]4(CO2)[C@@H](CC[C@@H]2[C@@]5(C)CC[C@H](O[C@H]6OC[C@H](O)[C@H](O[C@H]7O[C@H](COS(=O)(=O)O)[C@@H](O)[C@H](O)[C@H]7O)[C@H]6O[C@@H]6O[C@@H](CO)[C@H](O)[C@H]6O)C(C)(C)[C@@H]5CC[C@]24C)[C@H]3[C@@]1(C)O [Bacopaside I] | 19% | 0% | 
C[C@]1(C(=O)O)CC[C@]2(C)CC[C@]3(C)C(=CC(=O)[C@@H]4[C@@]5(C)CC[C@H](O[C@@H]6O[C@H](C(=O)O)[C@@H](O)[C@H](O)[C@H]6O[C@@H]6O[C@H](C(=O)O)[C@@H](O)[C@H](O)[C@H]6O)[C@](C)(CO)[C@@H]5CC[C@]43C)[C@@H]2C1 [Licoricesaponin G2] | 2% | 10% | 
COc1ccc(-c2cc(=O)c3c(O)cc(O[C@@H]4O[C@H](CO[C@@H]5O[C@@H](C)[C@H](O)[C@@H](O)[C@H]5O)[C@@H](O)[C@H](O)[C@H]4O)cc3o2)cc1O [Diosmin] |  | 10% and 4% | 
CS(=O)(=O)O.Cc1c(O)cccc1C(=O)N[C@@H](CSc1ccccc1)[C@H](O)CN1C[C@H]2CCCC[C@H]2C[C@H]1C(=O)NC(C)(C)C [Nelfinavir (Mesylate)] | 47% | 5% | 
C=C1C(=O)O[C@@H]2CC(C)=C([C@@H](C)CCCOC(C)=O)[C@@H](O)[C@H]12 [Inulicin] | 0% | 16% | 
NC[C@H]1O[C@H](O[C@H]2[C@H](O[C@@H]3O[C@H](CO)[C@@H](O)[C@H]3O)[C@@H](O)[C@H](N)C[C@@H]2N)[C@H](N)[C@@H](O)[C@@H]1O.O=S(=O)(O)O [Ribostamycin (sulfate)] | 33% | 13% | 
COc1ccc(-c2cc(=O)c3c(O)cc(OC)cc3o2)cc1 [7,4'‐Di‐O‐methylapigenin] | 0% | 9% | 
Cc1cc(-n2c(=O)[nH]c(=O)n(C)c2=O)ccc1Oc1ccc(S(=O)(=O)C(F)(F)F)cc1 [Toltrazuril (sulfone)] | 38% | 12% | 
Oc1cc(O)c2c(c1)O[C@@]1(c3ccc(O)c(O)c3)Oc3cc(O)c4c(c3[C@@H]2[C@H]1O)O[C@H](c1ccc(O)c(O)c1)[C@H](O)[C@H]4c1c(O)cc(O)c2c1O[C@H](c1ccc(O)c(O)c1)[C@H](O)C2 [Cinnamtannin B‐1] | 0% | 4% | 
Oc1cc(O)c2c(c1)O[C@H](c1cc(O)c(O)c(O)c1)[C@@H](O)C2 [(+)‐Gallocatechin] | 0% | 12% | 
O=C(Nc1ccccc1F)N[C@H]1N=C(c2ccccc2)c2ccccc2NC1=O (racemic) [RSV604 (racemate)] | 23% | 13% | 
CC(C)=CCC[C@@](C)(O)[C@H]1CC[C@]2(C)[C@@H]1[C@H](O)C[C@@H]1[C@@]3(C)CC[C@H](O[C@@H]4O[C@H](CO)[C@@H](O)[C@H](O)[C@H]4O[C@@H]4O[C@H](CO)[C@@H](O)[C@H](O)[C@H]4O)C(C)(C)[C@@H]3CC[C@]12C [(20R)-Ginsenoside Rg3] | 22% | 15% | 
C[C@@H]1O[C@@H](O[C@H]2[C@H](Oc3cc(O)c4c(c3)O[C@H](c3ccc(O)c(O)c3)CC4=O)O[C@H](CO)[C@@H](O)[C@@H]2O)[C@H](O)[C@H](O)[C@H]1O [Neoeriocitrin] | 6% | 13% | 
COc1cc2c3c(c1OC)-c1ccccc1C[C@H]3NCC2 [N‐Nornuciferine] | 13% | 0% | 
CC1(C)CCC2(C(=O)O)C(O)CC3(C)C(=CCC4C5(C)CC(O)C(O)C(C)(CO)C5CCC43C)C2C1 (stereo not shown) [Polygalacic acid] | 3% | 0% | 
